Assay results taken from US20250215032A1, “PHOSPHORYLPURINONE COMPOUNDS FOR THE TREATMENT OF CANCER” (Hoffmann-La Roche Inc., priority 2022, published 2025).
Converted amounts (≈) assume the structure as drawn. Where two headings read alike, the source gives them in different places.

Experiments:
[1] = target: T1, human TLR7 (Homo sapiens, UniProt Q9NYK1); assay: HEK293-Blue-hTLR7 cells assay (SEAP reporter, NF-κB activation)
T1 sequence (Q9NYK1 27-1049): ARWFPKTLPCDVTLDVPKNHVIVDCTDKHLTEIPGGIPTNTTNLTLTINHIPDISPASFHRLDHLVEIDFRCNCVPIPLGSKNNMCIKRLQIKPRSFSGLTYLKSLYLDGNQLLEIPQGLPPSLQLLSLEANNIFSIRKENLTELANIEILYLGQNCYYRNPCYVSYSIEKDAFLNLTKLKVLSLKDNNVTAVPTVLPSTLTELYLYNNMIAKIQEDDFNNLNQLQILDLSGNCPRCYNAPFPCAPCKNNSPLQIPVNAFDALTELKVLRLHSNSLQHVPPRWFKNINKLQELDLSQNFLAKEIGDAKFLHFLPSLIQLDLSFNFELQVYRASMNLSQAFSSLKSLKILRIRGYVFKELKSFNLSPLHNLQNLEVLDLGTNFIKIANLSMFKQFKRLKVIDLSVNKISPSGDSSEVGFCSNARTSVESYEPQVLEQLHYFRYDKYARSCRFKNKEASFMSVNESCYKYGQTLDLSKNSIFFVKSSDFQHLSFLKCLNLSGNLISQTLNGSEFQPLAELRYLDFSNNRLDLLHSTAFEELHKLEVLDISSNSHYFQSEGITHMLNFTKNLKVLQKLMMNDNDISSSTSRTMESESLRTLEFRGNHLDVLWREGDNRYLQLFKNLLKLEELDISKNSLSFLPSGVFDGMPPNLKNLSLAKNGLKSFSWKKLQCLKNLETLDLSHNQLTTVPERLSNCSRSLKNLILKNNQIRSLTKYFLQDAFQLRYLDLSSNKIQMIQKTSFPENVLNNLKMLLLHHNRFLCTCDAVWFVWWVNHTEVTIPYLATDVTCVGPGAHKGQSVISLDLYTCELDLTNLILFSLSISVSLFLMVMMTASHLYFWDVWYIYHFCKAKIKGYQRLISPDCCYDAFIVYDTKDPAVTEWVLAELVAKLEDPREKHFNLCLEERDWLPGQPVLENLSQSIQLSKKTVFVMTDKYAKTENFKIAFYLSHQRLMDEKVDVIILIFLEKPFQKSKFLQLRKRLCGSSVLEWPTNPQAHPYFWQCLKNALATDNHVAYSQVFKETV
Excerpt: A stable HEK293-Blue-h TLR7 cell line was purchased from InvivoGen (Cat. #: hkb-htlr7, San Diego, California, USA). These cells were designed for studying the stimulation of human TLR7 by monitoring the activation of NF-κB. A SEAP (secreted embryonic alkaline phosphatase) reporter gene was placed under the control of the IFN-β minimal promoter fused to five NF-κB and AP-1-binding sites. The SEAP was induced by activating NF-κB and AP-1 via stimulating HEK-Blue hTLR7 cells with TLR7 ligands. Therefore the reporter expression was regulated by the NF-κB promoter upon stimulation of human TLR7 for 20 hrs. The cell culture supernatant SEAP reporter activity was determined using QUANTI-Blue™ kit (Cat. #: rep-qb1, Invivogen, San Diego, Ca, USA) at a wavelength of 640 nm, a detection medium that turns purple or blue in the presence of alkaline phosphatase.
HEK293-Blue-hTLR7 cells were incubated at a density of 250,000˜450,000 cells/mL in a volume of 180 μL in a 96-well plate in Dulbecco's Modified Eagle's medium (DMEM) containing 4.5 g/L glucose, 50 U/mL penicillin, 50 mg/mL streptomycin, 100 mg/mL Normocin, 2 mM L-glutamine, 10% (V/V) heat-inactivated fetal bovine serum for 24 hrs. Then the HEK293-Blue-hTLR7 cells were incubated with addition of 20 μL test compound in a serial dilution in the presence of final DMSO at 1% and perform incubation under 37° C. in a CO2 incubator for 20 hrs.

[2] = Lyophilisation solubility assay (LYSA), kinetic solubility; format: physicochemical; settings: aqueous buffer; 0.05 M phosphate buffer (pH 6.5), from 10 mM DMSO stock after evaporation
Excerpt: The solubility of a substance can be broadly defined as the maximum amount of the substance that dissolves in a specified volume of solvent. However, it is important to understand that the solubility of a compound can vary drastically depending on the condition of the solvent (e.g. temperature and pH) and the physiochemical properties of the compound (e.g. ionisation and crystallinity). These critical factors need to be considered during solubility determination in order to generate high quality solubility data that will be useful in the progression of compounds through the discovery and development stages. The kinetic solubility of a compound is the maximum solubility of the fastest precipitating species of the compound; this is often measured using a stock solution of the compound dissolved in an organic solvent, typically dimethyl sulfoxide (DMSO), as the starting material. […] The precipitate formed, which is rarely determined during the assessment, could be any combination of various possible solid states of the compound. Given the level of supersaturation that could occur when an organic solvent is diluted in water, kinetic solubility values are typically higher than the corresponding thermodynamic (equilibrium) solubility values. Solubility assays in the early discovery process often determine kinetic solubility. The lyophilisation solubility assay (LYSA) is a high throughput kinetic solubility assay for the early drug discovery process.
Samples were prepared in duplicate from 10 mM DMSO stock solution. After evaporation of DMSO with a centrifugal vacuum evaporator, the compounds were solved in 0.05 M phosphate buffer (pH 6.5), stirred for one hour and shaken for two hours. After one night, the solutions were filtered using a microtiter filter plate. Then the filtrate and its 1/10 dilution were analyzed by HPLC-UV. […] The results were in μg/mL. […] It should be noted that metastable solid phases may form during the evaporation step, and the method might therefore produce higher solubility values than assays using the stable polymorph as the starting material.

[3] = Thermodynamic solubility assay (THESA), equilibrium solubility; format: physicochemical; settings: 22 °C, aqueous buffer, thermodynamic from solid; 50 mM phosphate buffer (pH 6.5), room temperature (22±2° C.)
Protocol: The thermodynamic (equilibrium) solubility is the saturation solubility of a compound at the end of the dissolution process, where the dissolved compound is in equilibrium with the undissolved material in excess. The thermodynamic solubility is determined by dispensing a solid compound into a solvent. This is often deemed as the true solubility of the compound and is a critical piece of information in formulation development. The thermodynamic solubility assay (THESA) is a widely used tool for the measurement of equilibrium solubility for the later drug discovery process and is considered as a gold standard solubility assay.
Approximately 1-2 mg of each compound was added into 300 μL of 50 mM phosphate buffer (pH 6.5) at room temperature (22±2° C.). Each sample is placed in a microanalysis tube, which was sonicated for 1 h and shaken for 2 h. All suspensions were left overnight (about 16 h). On the next day, the samples were filtered into a V-bottom plate with a micronic filterplate to separate the solid material from the solution. Then, all solutions were diluted into 96 well V-bottom microplates and analyzed by UPLC-UV. The calibration line was established by UPLC using 5 different dilutions of the compound in a DMSO stock solution, made in micronic tubes (concentration approximately 1 mg/mL). Dilutions took place with DMSO. From this regression equation the solubility of the compound was determined. In cases where the drug was completely dissolved in the buffer, the value for equilibrium solubility was assumed to be higher than the value determined by UPLC and reported as such.

[4] = Dissolution test in fed state simulated intestinal fluid (FeSSIF); format: physicochemical; settings: FeSSIF pH 5, room temperature
Protocol: 4.040 g of NaOH (pellets), 8.650 g of glacial acetic acid and 11.874 g of NaCl were dissolved in about 0.9 L of purified water. The pH was adjusted to 5 with either 1 N NaOH or 1 N HCl. The total volume of the mixture was made up to 1.0 L with purified water at room temperature.
To about 50 mL of blank FeSSIF buffer was added 1.120 g of SIF Powder Original (Biorelevant.com Ltd, Product code: FFF03, UK), the mixture was stirred until powder was completely dissolved. The total volume of the mixture was made up to 100 mL with blank FeSSIF buffer at room temperature.
(§1) Approximately 1-2 mg of each compound was added in excess into […] of buffer at room temperature. Each sample is placed in a microanalysis glass tube, which was sonicated for 1 h and agitated for 2 h. All suspensions were left overnight (about 16 h). On the next day, all pH values were measured with a pH-meter and the samples were filtered into a V-bottom plate with a micronic filterplate to separate the solid material from the solution. Then, all solutions were diluted into 96 well V-bottom microplates and analyzed by UPLC-UV.
(§2) The calibration line was established by UPLC using 5 different dilutions of the compound in a DMSO stock solution, made in micronic tubes (concentration approximately 1 mg/mL). Dilutions took place with DMSO (in special circumstances, with acetonitrile, or 80% HCl 0.1 N/20% acetonitrile). From this regression equation the solubility of the compound was determined. In cases where the compound was completely dissolved in the buffer, the value for equilibrium solubility was assumed to be higher than the value determined by UPLC and reported as such.

[5] = Dissolution test in fasted state simulated intestinal fluid (FaSSIF); format: physicochemical; settings: FaSSIF pH 6.5, room temperature
Protocol: 0.420 g of NaOH (pellets), 3.954 g of NaH2PO4 (monohydrate) and 6.186 g of NaCl were dissolved in about 0.9 L of purified water. The pH was adjusted to 6.5 with either 1 N NaOH or 1 N HCl. The total volume of the mixture was made up to 1.0 L with purified water at room temperature.
To about 50 mL of blank FaSSIF buffer was added 0.2240 g of SIF Powder Original (Biorelevant.com Ltd, Product code: FFF03, UK), the mixture was stirred until powder was completely dissolved. The total volume of the mixture was made up to 100 mL with blank FaSSIF buffer at room temperature.
as §1, §2

EC50 [1] | solubility kinetic [2] | solubility thermodynamic [3] | FeSSIF [4] | FaSSIF [5] | SMILES | EC50 ([1]; read-out: HEK293-Blue-h TLR7 (EC50 (μM)), HEK293-Blue-hTLR7 cells, 20 hrs incubation, SEAP reporter)
0.034 µM | > 540 µg/mL | 929 µg/mL (≈ 2.3 mM) | 3077 µg/mL | 2527 µg/mL | CN(C)CCNc1ccc(Cn2c(=O)[nH]c3c(N)nc(P(C)(C)=O)nc32)cn1 [Example 1, 6-amino-9-[[6-[2-(dimethylamino)ethylamino]-3-pyridyl]methyl]-2-dimethylphosphoryl-7H-purin-8-one] | 
0.019 µM | > 540 µg/mL | 2780 µg/mL (≈ 6.85 mM) | 4801 µg/mL | 3519 µg/mL | CN(C)CCOc1ccc(Cn2c(=O)[nH]c3c(N)nc(P(C)(C)=O)nc32)cn1 [Example 2, 6-amino-9-[[6-[2-(dimethylamino)ethoxy]-3-pyridyl]methyl]-2-dimethylphosphoryl-7H-purin-8-one] | 
 | > 530 µg/mL | 2380 µg/mL (≈ 5.53 mM) | 4672 µg/mL | 2368 µg/mL | CC[P@@](C)(=O)c1nc(N)c2[nH]c(=O)n(Cc3ccc(N4CCN(C)CC4)nc3)c2n1 [Example 13-A, 6-amino-2-[(R)-ethyl(methyl)phosphoryl]-9-[[6-(4-methylpiperazin-1-yl)-3-pyridyl]methyl]-7H-purin-8-one] | 
0.018 µM | > 560 µg/mL | 4060 µg/mL (≈ 9.7 mM) | 3987 µg/mL | 3074 µg/mL | CC[P@@](C)(=O)c1nc(N)c2[nH]c(=O)n(Cc3ccc(NCCN(C)C)nc3)c2n1 [Example 15-A, 6-amino-9-[[6-[2-(dimethylamino)ethylamino]-3-pyridyl]methyl]-2-[(R)-ethyl(methyl)phosphoryl]-7H-purin-8-one] | 
0.012 µM | > 560 µg/mL | > 4970 µg/mL | >4267 µg/mL | >3733 µg/mL | CC[P@](C)(=O)c1nc(N)c2[nH]c(=O)n(Cc3ccc(NCCN(C)C)nc3)c2n1 [Example 15-B, 6-amino-9-[[6-[2-(dimethylamino)ethylamino]-3-pyridyl]methyl]-2-[(S)-ethyl(methyl)phosphoryl]-7H-purin-8-one] | 
 | > 560 µg/mL | 1900 µg/mL (≈ 4.53 mM) | 2371 µg/mL | 1799 µg/mL | CC[P@@](C)(=O)c1nc(N)c2[nH]c(=O)n(Cc3ccc(OCCN(C)C)nc3)c2n1 [Example 16-A, 6-amino-9-[[6-[2-(dimethylamino)ethoxy]-3-pyridyl]methyl]-2-[(R)-ethyl(methyl)phosphoryl]-7H-purin-8-one] | 
 | > 560 µg/mL | 3450 µg/mL (≈ 8.23 mM) | 1464 µg/mL | 784 µg/mL | CC[P@](C)(=O)c1nc(N)c2[nH]c(=O)n(Cc3ccc(OCCN(C)C)nc3)c2n1 [Example 16-B, 6-amino-9-[[6-[2-(dimethylamino)ethoxy]-3-pyridyl]methyl]-2-[(S)-ethyl(methyl)phosphoryl]-7H-purin-8-one] | 
 | > 580 µg/mL | 3000 µg/mL (≈ 6.94 mM) | 4536 µg/mL | 3436 µg/mL | CCC[P@](C)(=O)c1nc(N)c2[nH]c(=O)n(Cc3ccc(NCCN(C)C)nc3)c2n1 [Example 18-A, 6-amino-9-[[6-[2-(dimethylamino)ethylamino]-3-pyridyl]methyl]-2-[(S)-methyl(propyl)phosphoryl]-7H-purin-8-one] | 
 | > 580 µg/mL | 4020 µg/mL (≈ 9.3 mM) | >5000 µg/mL | >3767 µg/mL | CCC[P@@](C)(=O)c1nc(N)c2[nH]c(=O)n(Cc3ccc(NCCN(C)C)nc3)c2n1 [Example 18-B, 6-amino-9-[[6-[2-(dimethylamino)ethylamino]-3-pyridyl]methyl]-2-[(R)-methyl(propyl)phosphoryl]-7H-purin-8-one] | 

SMILES | EC50 [1] | solubility kinetic [2] | solubility thermodynamic [3] | FeSSIF [4] | FaSSIF [5] | EC50 ([1]; read-out: HEK293-Blue-h TLR7 (EC50 (μM)), HEK293-Blue-hTLR7 cells, 20 hrs incubation, SEAP reporter)
CCCS(=N)(=O)c1nc(N)c2[nH]c(=O)n(Cc3ccc(Cl)nc3)c2n1 (stereo not drawn) [RO14, reference compound] |  | 69 µg/mL | 33 µg/mL (≈ 0.0864 mM) | 21 µg/mL | 14 µg/mL | 0.017 µM
